Source: publication PMC7666214, “Kinetic insights into the peroxygenase activity of cellulose-active lytic polysaccharide monooxygenases (LPMOs)” (Nature Communications, 2020)

Molecular target: T1, HRP (Armoracia rusticana, UniProt P00433)
T1 construct: gene PRXC1A; commercial horseradish peroxidase, used as purchased
T1 sequence (P00433 31-338): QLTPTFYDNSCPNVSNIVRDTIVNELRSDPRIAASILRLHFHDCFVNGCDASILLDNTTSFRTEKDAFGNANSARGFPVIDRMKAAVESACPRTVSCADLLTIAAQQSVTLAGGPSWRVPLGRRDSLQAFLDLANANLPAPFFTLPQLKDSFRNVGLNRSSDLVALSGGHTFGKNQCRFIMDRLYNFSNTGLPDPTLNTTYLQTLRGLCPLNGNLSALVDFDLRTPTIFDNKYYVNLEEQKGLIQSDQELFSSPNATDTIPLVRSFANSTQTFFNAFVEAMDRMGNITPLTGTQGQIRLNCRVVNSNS
Experiment: absorbance at […] nm (resorufin)
Assay type: biochemical
Conditions: H2O2 co-substrate, Bis-Tris 50 mM pH 6.1, 25 °C; ping-pong

`CC(=O)N1c2ccc(O)cc2Oc2cc(O)ccc21` [AR, N-acetyl-3,7-dihydroxyphenoxazine] was tested. Which “absorbance at 570 nm (resorufin)” value did it give?
The value was “The kinetics of HRP with the AR substrate was consistent with the ping-pong mechanism”.
